Measurements reported in ChEMBL document CHEMBL2010746, “Synthesis, resolution and anticonvulsant activity of chiral N-1'-ethyl,N-3'-(1-phenylethyl)-(R,S)-2'H,3H,5'H-spiro-(2-benzofuran-1,4'-imidazolidine)-2',3,5'-trione diastereomers” (2012).
The source made the active and inactive calls. The rule behind the calls is not given here.

Tests used:
Mus musculus [1] = assay: Anticonvulsant activity in ip dosed mouse assessed as decrease in pentylenetetrazol-induced convulsions at 30 mins; type: functional; details: 0.5 h
Mus musculus [2] = assay: Anticonvulsant activity in mouse assessed as decrease in pentylenetetrazol-induced convulsions up to 300 mg/kg, ip at 30 mins; type: functional, organism-based; design: dose 300 mg/kg
Mus musculus [3] = assay: Anticonvulsant activity in mouse assessed as decrease in pentylenetetrazol-induced convulsions at 300 mg/kg, ip at 30 mins; type: functional, organism-based; design: dose 300 mg/kg

SMILES	ED50 (Mus musculus [1]) [mg/kg]	Activity (Mus musculus [2])	further results
CCC1(c2ccccc2)C(=O)NC(=O)NC1=O [PHENOBARBITAL]	25		
CCN1C(=O)N([C@H](C)c2ccccc2)[C@@]2(OC(=O)c3ccccc32)C1=O		inactive	
CCN1C(=O)N([C@H](C)c2ccccc2)[C@]2(OC(=O)c3ccccc32)C1=O			Activity (Mus musculus [3]): Active
CCN1C(=O)N([C@@H](C)c2ccccc2)[C@@]2(OC(=O)c3ccccc32)C1=O	300		
CCN1C(=O)N([C@@H](C)c2ccccc2)[C@]2(OC(=O)c3ccccc32)C1=O		inactive	
